The results in this text go back to ChEMBL document CHEMBL1201862, “PubChem BioAssay data set” (2004).

Where “and” joins values, the source holds several entries; their conditions need not be identical. Identical values can stand only once. Entries after “also recorded” stand apart in the source; their conditions may differ. Calls of active or inactive are those of the source.

The nature of series [1]: microbe, parasite or virus in culture. The series is classed as functional. Conditions: Mycobacterium tuberculosis.
For series [2], the target named is T1, Heat shock factor protein 1 (Mus musculus, UniProt P38532).
T1 sequence (P38532 whole entry): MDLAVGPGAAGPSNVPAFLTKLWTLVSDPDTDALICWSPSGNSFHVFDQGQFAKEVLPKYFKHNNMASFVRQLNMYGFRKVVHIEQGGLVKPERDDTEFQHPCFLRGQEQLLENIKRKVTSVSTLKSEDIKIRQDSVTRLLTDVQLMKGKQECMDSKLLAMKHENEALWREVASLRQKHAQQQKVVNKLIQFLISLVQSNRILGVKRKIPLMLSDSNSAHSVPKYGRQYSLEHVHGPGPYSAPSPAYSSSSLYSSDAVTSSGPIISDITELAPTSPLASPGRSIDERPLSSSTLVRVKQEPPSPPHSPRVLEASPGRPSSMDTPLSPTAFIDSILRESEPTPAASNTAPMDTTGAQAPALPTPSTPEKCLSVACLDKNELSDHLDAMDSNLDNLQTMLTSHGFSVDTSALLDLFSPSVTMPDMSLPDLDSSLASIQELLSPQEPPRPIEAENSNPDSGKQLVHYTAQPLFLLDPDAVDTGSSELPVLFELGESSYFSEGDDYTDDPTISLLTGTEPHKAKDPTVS
Kind of series: enhancement of HSF1-driven luciferase signal – cell-based, NIH3T3, luminescence, dose retest, confirmation (AID 435004).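 Also: stress induced by proteasome inhibitor MG132 added 30 min after compound; luciferase reporter driven by HSF1 response element in NIH3T3 cells; actives raise luminescence as potentiators of the MG132 stress response.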 The series is classed as functional.

The target in series [3] is DNA damage-inducible transcript 3 protein (Mus musculus, UniProt P35639). The series is classed as functional, Cricetulus griseus.
The target in series [4] is T2, Replicative DNA helicase DnaB (Mycobacterium tuberculosis, UniProt P9WMR3).
T2 sequence (P9WMR3 whole entry): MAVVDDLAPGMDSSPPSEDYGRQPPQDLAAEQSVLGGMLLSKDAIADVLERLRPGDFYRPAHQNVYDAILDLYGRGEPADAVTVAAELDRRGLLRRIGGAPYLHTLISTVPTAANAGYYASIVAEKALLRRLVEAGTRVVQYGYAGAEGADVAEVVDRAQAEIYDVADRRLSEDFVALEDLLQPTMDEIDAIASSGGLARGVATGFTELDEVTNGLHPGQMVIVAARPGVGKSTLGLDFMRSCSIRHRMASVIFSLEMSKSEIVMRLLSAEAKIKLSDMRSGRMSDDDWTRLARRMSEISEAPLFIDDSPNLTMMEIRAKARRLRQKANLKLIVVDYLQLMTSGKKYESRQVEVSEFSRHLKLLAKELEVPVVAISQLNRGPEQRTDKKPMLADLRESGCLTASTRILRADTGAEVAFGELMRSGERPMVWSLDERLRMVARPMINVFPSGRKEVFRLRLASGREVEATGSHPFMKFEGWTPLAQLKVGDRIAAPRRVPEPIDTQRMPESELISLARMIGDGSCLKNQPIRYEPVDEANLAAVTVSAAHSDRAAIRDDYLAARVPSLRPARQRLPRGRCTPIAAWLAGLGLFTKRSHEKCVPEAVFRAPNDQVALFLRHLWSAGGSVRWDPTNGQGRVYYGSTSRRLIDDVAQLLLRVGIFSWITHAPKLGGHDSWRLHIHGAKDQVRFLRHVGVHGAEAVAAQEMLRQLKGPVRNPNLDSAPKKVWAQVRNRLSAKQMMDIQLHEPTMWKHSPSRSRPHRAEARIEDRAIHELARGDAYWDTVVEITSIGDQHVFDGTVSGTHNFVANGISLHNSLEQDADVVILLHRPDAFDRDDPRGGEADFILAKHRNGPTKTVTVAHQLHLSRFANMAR
Put plainly: DnaB intein splicing inhibitors, dose response, biochemical, cell-free fluorescence (AID 449749). The series is classed as functional.

In another series the target is T3, Protein RecA (Mycobacterium tuberculosis, UniProt P9WHJ3).
T3 sequence (P9WHJ3 whole entry): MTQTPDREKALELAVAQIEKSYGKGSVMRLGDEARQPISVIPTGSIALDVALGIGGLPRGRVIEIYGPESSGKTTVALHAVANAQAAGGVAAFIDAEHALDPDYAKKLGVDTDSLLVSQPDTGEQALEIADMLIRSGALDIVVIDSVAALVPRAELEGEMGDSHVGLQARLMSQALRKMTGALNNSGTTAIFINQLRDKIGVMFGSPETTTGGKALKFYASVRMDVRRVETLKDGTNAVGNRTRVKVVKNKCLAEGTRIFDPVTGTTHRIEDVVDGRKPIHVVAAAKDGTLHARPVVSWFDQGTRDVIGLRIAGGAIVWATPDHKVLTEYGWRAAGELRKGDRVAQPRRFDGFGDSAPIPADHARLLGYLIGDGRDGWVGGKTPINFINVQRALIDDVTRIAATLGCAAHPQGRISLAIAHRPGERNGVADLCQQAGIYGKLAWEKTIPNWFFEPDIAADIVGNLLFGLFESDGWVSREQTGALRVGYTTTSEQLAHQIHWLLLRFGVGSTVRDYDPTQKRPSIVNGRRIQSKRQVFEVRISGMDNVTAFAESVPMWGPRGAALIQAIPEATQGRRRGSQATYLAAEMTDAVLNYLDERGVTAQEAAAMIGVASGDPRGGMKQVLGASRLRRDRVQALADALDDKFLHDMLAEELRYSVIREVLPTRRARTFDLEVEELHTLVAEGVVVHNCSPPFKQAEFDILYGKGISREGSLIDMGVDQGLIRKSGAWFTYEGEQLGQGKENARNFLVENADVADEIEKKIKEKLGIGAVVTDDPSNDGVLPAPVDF
Put plainly: Fluorescence Cell-Free Homogeneous Dose Retest to Identify Inhibitors of RecA-Intein Splicing Activity. [Related pubchem assays (depositor defined):AID2097, AID2223, AID489010, AID492950]. The series is classed as functional.

The target in another series is T4, Cytochrome P450 1A2 (Homo sapiens, UniProt P05177).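 Also: PubChem cytochrome P450 panel assay, CYP1A2 panel member.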
T4 sequence (P05177 whole entry): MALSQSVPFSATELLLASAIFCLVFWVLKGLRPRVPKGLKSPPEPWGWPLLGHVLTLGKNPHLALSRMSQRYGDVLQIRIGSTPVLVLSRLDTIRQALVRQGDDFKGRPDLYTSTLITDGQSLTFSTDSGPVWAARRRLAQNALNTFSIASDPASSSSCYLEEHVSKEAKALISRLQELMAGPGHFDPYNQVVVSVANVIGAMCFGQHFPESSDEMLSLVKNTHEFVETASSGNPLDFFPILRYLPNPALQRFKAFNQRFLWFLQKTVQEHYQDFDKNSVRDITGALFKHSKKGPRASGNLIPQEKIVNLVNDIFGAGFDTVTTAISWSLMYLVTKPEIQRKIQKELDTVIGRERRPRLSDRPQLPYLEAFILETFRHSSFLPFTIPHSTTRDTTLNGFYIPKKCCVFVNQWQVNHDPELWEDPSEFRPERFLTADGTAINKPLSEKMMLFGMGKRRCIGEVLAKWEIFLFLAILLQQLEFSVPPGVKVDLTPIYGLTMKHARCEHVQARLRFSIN

Another series addresses Cytochrome P450 2C9 (Homo sapiens, UniProt P11712).
The target of another series is Cytochrome P450 3A4 (Homo sapiens, UniProt P08684).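 Also: CYP3A4 tested as one member of a cytochrome P450 panel screen.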
The next series deals with Cytochrome P450 2C19 (Homo sapiens, UniProt P33261). Put plainly: Cytochrome panel assay with activity outcomes. Panel member name: p450-cyp2c19 Compounds with AC50 equal or less than 10 uM are considered active. The series is classed as functional.
A short description of series [5]: decrease of insulin promoter-GFP reporter – imaging, high-content screening, mouse beta cells (AID 1628). The series is classed as functional. Particulars: MIN6.
A short description of series [6]: MIN6 cell viability loss – mouse insulinoma, cytotoxicity control, dose response (AID 2122).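 Also: confirmatory high-throughput counterscreen run to flag cytotoxic compounds.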 The series is classed as functional.
The nature of series [7]: NIH-3T3 fibroblast cytotoxicity, dose response, cytotoxicity control, cell-based, fluorescence, Alamar Blue, secondary assay (AID 2327).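 Also: NIH-3T3 mouse fibroblasts cultured with fluconazole at 8 µg/mL.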 The series is classed as functional. Background: The colour change of resazurin is a common sign of viable cells or microbes.
A short description of series [8]: fluconazole-exposed Candida albicans growth modulators – fluorescence, retest, confirmation (AID 2467). The series is classed as functional, cell-based.
For a further series, the system named is INS1. Put plainly: INS-1E survival protection against cytokine death – cell-based, luminescence, retest, dose response (AID 449756).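 Also: cell death triggered by IL-1 beta plus TNF-alpha plus IFN-gamma mixture; protective hits raise ATP signal compared with cytokine alone wells.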 The series is classed as functional. Conditions: Rattus norvegicus, INS1.

Sequence of Cytochrome P450 2C9 (P11712 whole entry): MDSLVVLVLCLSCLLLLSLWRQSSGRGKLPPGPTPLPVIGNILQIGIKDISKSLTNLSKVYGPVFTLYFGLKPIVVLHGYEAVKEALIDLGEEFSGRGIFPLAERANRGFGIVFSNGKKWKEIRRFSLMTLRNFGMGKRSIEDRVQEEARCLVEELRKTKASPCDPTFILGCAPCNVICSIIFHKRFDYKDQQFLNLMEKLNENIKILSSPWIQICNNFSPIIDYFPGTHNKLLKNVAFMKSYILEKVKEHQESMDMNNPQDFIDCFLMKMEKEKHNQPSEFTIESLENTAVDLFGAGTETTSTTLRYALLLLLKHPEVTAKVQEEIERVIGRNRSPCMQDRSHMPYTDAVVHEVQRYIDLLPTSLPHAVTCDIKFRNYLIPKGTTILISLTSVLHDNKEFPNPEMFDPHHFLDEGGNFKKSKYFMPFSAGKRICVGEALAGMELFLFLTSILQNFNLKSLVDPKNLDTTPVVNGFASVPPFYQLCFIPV
Sequence of Cytochrome P450 2C19 (P33261 whole entry): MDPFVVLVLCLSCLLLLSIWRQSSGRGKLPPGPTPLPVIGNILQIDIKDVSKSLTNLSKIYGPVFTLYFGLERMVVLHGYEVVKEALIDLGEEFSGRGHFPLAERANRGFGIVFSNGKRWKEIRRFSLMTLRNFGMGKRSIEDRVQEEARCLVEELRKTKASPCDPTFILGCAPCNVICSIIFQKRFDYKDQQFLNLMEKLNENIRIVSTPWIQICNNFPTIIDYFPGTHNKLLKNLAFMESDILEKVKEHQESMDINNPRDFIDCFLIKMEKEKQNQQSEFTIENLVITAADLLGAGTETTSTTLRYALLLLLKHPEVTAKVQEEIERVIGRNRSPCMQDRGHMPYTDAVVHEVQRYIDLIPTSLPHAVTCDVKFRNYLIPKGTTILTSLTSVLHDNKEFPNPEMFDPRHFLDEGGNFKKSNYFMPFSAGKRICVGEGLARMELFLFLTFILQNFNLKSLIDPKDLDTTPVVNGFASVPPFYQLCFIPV
Sequence of Cytochrome P450 3A4 (P08684 whole entry): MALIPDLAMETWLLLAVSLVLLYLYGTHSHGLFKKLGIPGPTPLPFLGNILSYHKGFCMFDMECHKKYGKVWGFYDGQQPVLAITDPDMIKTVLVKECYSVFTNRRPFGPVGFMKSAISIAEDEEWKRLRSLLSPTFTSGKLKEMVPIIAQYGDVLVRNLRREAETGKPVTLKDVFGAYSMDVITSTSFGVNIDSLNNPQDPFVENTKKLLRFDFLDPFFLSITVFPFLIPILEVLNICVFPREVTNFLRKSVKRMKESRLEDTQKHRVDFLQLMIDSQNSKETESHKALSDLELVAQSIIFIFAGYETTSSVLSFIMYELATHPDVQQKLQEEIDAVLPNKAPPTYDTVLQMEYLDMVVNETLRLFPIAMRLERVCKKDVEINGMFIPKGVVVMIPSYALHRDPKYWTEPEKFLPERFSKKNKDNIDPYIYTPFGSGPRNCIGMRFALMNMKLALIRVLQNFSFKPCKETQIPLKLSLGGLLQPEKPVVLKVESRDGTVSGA
Sequence of DNA damage-inducible transcript 3 protein (P35639 whole entry): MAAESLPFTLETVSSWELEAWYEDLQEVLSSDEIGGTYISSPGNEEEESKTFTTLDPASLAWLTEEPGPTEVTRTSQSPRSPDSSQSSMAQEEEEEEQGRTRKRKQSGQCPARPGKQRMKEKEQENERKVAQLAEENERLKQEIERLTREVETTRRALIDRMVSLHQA

Broadly, the EC50 is the concentration giving half of the maximal effect. A word on the AC50: it is the midpoint of the concentration-response curve, whichever way the signal moves. As to `O=C(CCl)N1CCN2C(=O)c3ccccc3C12c1ccc(Cl)cc1` (stereo not given), the CC50 in [1] was 8.94 µM (active). Besides, the figures for the EC50 (in series [2]; at Protein RecA) were 15 µM (active) and 1.08 µM (active), respectively. Besides, the “Absolute IC50 (CHOP)” value in series [3] was 10 µM. In addition, in series [4], the AC50 is 3.96 µM (active).

As for `c1ccc(CN2CCC3(CCc4ccccc43)CC2)cc1`, the values for the AC50 on Cytochrome P450 1A2, at Cytochrome P450 2C9 and on Cytochrome P450 3A4 were 31.6 µM (inconclusive), 39.8 µM (inconclusive) and “inconclusive”, respectively.

In the case of `COCCCN1CCN(c2nnc3n2-c2sc(Br)cc2C(c2ccccc2Cl)=NC3)CC1.CS(=O)(=O)O`, the AC50 at Cytochrome P450 2C19 (read-out: AC50) is 7.08 µM (inconclusive); at Cytochrome P450 3A4 it was “inconclusive”.

On to `CC(C)c1nnc(NC(=O)CCC(=O)N2CCN(c3ccccn3)CC2)s1`, for which the values for the AC50 on Cytochrome P450 2C19 (read-out: AC50), on Cytochrome P450 2C9 and on Cytochrome P450 3A4 were 28.2 µM (inconclusive), 7.08 µM (inconclusive) and “inconclusive”, respectively.

As to `Cc1ccccc1C(=O)N1CCN(c2ccc([N+](=O)[O-])c(NCc3ccco3)c2)CC1`, the AC50 result on Cytochrome P450 3A4 is listed as “inconclusive”.

A word on the IC50: it is the concentration that gives 50% inhibition. For the molecule `O=[N+]([O-])c1ccccc1N/N=C/c1cccc(O)c1O`, the 50% inhibitory concentration (IC50) in series [5] was 2.74 µM (active); in [6], 3.75 µM (active).

Take `CC(C)(C)c1ccc(OCc2ccc(C(=O)N/N=C/c3ccc(O)c(O)c3)cc2)cc1`: the figures for the EC50 in series [7] and in series [8] were 2.67 µM (inconclusive) and > 38 µM (not active), respectively. Moreover, the results for the IC50 in series [5] and in [6] were 3.14 µM (active) and 1.97 µM (active), respectively. Moreover, in the series on INS1, the AC50 is 5.45 µM (active).

As to `Fc1ccc(C(c2ccc(F)cc2)N2CCN(C/C=C\c3ccccc3)CC2)cc1`, the AC50 result on Cytochrome P450 2C19 was “inactive”; on Cytochrome P450 1A2 it was 15.8 µM (inconclusive) (2×) and 25.1 µM (inconclusive); on Cytochrome P450 2C9, 39.8 µM (inconclusive) and 20 µM (inconclusive) and 15.8 µM (inconclusive); at Cytochrome P450 3A4, “inactive; also recorded: inconclusive”.
